Reference: paper PMC3574224, “Na^+ Regulation in the Malaria Parasite Plasmodiumfalciparum Involves the Cation ATPase PfATP4 and Is a Target of the Spiroindolone Antimalarials” (Cell Host & Microbe, 2013)

Legend:
Format in all cases: cell-based
P. falciparum parasites = test: Parasite proliferation, [^3H]hypoxanthine incorporation assay, 48 hr; settings: Plasmodium falciparum; mean ± SEM, number of independent experiments in parentheses; read-out: IC50 for inhibition of parasite proliferation
Protocol: (§1) Parasite growth assays were performed in 96-well plates over 48 hr (commencing at the ring stage) using a standard [^3H]hypoxanthine incorporation assay ([Desjardins et al., 1979]).
(§2) Dose-response curves were obtained using the expression y = y^min + y^max/(1 + [C/IC50]^b), where y is the parameter being measured (parasite proliferation, Na^+ influx, or ATPase activity), y^min is the minimum value of y, y^max is the maximum value of y, C is the concentration of the moiety that was varied in the experiment, IC50 is the concentration at which y was reduced to 50% of y^max, and b is a fitted constant.

[1] = test system: P. falciparum NITD609-R^Dd2 clone #2 (mutant PfATP4); test: Parasite proliferation, [^3H]hypoxanthine incorporation, NITD609-R^Dd2 clone #2; settings: Plasmodium falciparum, mean ± SEM (n), read-out: IC50 for inhibition of parasite proliferation by NITD246
Protocol: as §1, §2

P. falciparum Dd2 parent = test: Disruption of [Na^+]i regulation, SBFI-loaded trophozoites, Dd2 parent; settings: Plasmodium falciparum, DD2, read-out: IC50 for disruption of Na^+ regulation by NITD246
Protocol: (§3) The [Na^+]i of saponin-isolated parasites was measured at 37°C using the Na^+-sensitive dye SBFI (Molecular Probes, Invitrogen) in conjunction with a PerkinElmer LS 50B Fluorescence Spectrometer fitted with a Dual Excitation Fast Filter. Saponin-isolated parasites were loaded with SBFI by suspension (at 1.40–1.80 × 10^8 cells/mL) for 20 min at 37°C in bicarbonate-free RPMI1640 supplemented with 20 mM D-glucose, 0.2 mM hypoxanthine, 25 mM HEPES, and 25 mg/L gentamycin sulfate (pH 7.10), to which SBFI-acetoxymethyl ester (5.5 μM) and Pluronic F-127 (0.01% w/v) were added. The dye-loaded cells were washed twice (12,000 × g, 0.5 min) in bicarbonate-free RPMI then incubated for a further 20 min at 37°C to allow for complete de-esterification of the dye before being resuspended at a final cell concentration of 1.5–2.5 × 10^7 cells/mL in standard saline. The dye-loaded cells were excited at 340 nm and 380 nm with fluorescence recorded at 490 nm. Calibration of the relationship between the 340/380 nm fluorescence ratio and [Na^+]i (see Figures S1A–S1C) was carried out as described previously ([Diarra et al., 2001]; [Harootunian et al., 1989]). Several inhibitors used in this study caused inner filter effects ([Gu and Kenny, 2009]; [Srinivas and Mutharasan, 1987]); in these cases calibration curves were generated with the inhibitors present. […]

[2] = test system: P. falciparum Dd2^attB CAM I398F/P990R (mutant PfATP4 transfectant); test: Disruption of [Na^+]i regulation, SBFI-loaded trophozoites, Dd2^attB CAM I398F/P990R; settings: Plasmodium falciparum, from fitted curves, read-out: IC50 for disruption of Na^+ regulation by NITD246
Protocol: as §3

C[C@H]1Cc2c([nH]c3cc(F)c(F)cc23)[C@@]2(N1)C(=O)Nc1ccc(Cl)cc12 [NITD246]
IC50 (P. falciparum parasites): 0.12 ± 0.02 nM | IC50 [1]: 0.89 ± 0.12 nM | IC50 (P. falciparum Dd2 parent): 1.6 ± 0.3 nM | IC50 [2]: 3.9 ± 1.7 nM
